Results from ChEMBL document CHEMBL1649467, “Impact of human serum albumin on oritavancin in vitro activity against enterococci” (Antimicrob Agents Chemother, 2009).
In brackets after ≈: the same amount, converted by molar mass.

Key:
Enterococcus faecium [1] = test: Antimicrobial activity against vancomycin-resistant Enterococcus faecium 1119175 by broth dilution method in presence of 4% HSA; format: functional
Enterococcus faecium [2] = test: Bactericidal activity against vancomycin-resistant Enterococcus faecium ATCC 51559 expressing vanA gene assessed as change in bacterial count at 2 ug/ml by time-kill assay; format: functional
Enterococcus faecium [3] = test: Antimicrobial activity against vancomycin-resistant Enterococcus faecium ATCC 51559 by broth dilution method; format: functional
Enterococcus faecalis [4] = test: Antimicrobial activity against vancomycin-susceptible Enterococcus faecalis ATCC 29212 by broth dilution method; format: functional
Enterococcus faecium [5] = test: Bactericidal activity against vancomycin-resistant Enterococcus faecium 1059060 expressing vanA gene assessed as change in bacterial count at 32 ug/ml by time-kill assay; format: functional
Enterococcus faecium [6] = test: Antimicrobial activity against vancomycin-resistant Enterococcus faecium 1059060 by broth dilution method in presence of 4% HSA; format: functional
Enterococcus faecalis [7] = test: Bactericidal activity against vancomycin-resistant Enterococcus faecalis ATCC 51299 expressing vanB gene assessed as change in bacterial count at 32 ug/ml by time-kill assay; format: functional
Enterococcus faecium [8] = test: Bactericidal activity against vancomycin-resistant Enterococcus faecium 1059060 expressing vanA gene assessed as change in bacterial count at 2 ug/ml by time-kill assay; format: functional
Enterococcus faecalis [9] = test: Antimicrobial activity against vancomycin-resistant Enterococcus faecalis ATCC 51299 by broth dilution method; format: functional
Enterococcus faecalis [10] = test: Antimicrobial activity against vancomycin-resistant Enterococcus faecalis 1058946 by broth dilution method in presence of 4% HSA; format: functional
Enterococcus faecalis [11] = test: Bactericidal activity against vancomycin-susceptible Enterococcus faecalis ATCC 29212 assessed as change in bacterial count at 32 ug/ml by time-kill assay; format: functional
[12] = Free fraction in healthy human male at 200 mg, iv every 24 hrs by LC/MS/MS analysis; format: ADME, organism-based; conditions: in vivo
[13] = Cmax in healthy human male at 200 mg, iv every 24 hrs by LC/MS/MS analysis; format: ADME, organism-based; parameters: dose 200 mg, route intravenous; conditions: in vivo
Enterococcus faecalis [14] = test: Bactericidal activity against vancomycin-resistant Enterococcus faecalis 1058946 expressing vanA gene assessed as change in bacterial count at 32 ug/ml by time-kill assay; format: functional
Enterococcus faecalis [15] = test: Bactericidal activity against vancomycin-resistant Enterococcus faecalis 1058946 expressing vanA gene assessed as change in bacterial count at 2 ug/ml by time-kill assay; format: functional
Enterococcus faecalis [16] = test: Antimicrobial activity against vancomycin-resistant Enterococcus faecalis ATCC 51299 by broth dilution method in presence of 4% HSA; format: functional
Enterococcus faecalis [17] = test: Antimicrobial activity against vancomycin-susceptible Enterococcus faecalis ATCC 29212 by broth dilution method in presence of 4% HSA; format: functional
Enterococcus faecium [18] = test: Selectivity ratio of MIC for Enterococcus faecium ATCC 51559 in presence of 4% HSA to MIC for Enterococcus faecium ATCC 51559; format: functional
Enterococcus faecium [19] = test: Selectivity ratio of MIC for Enterococcus faecium 1059060 in presence of 4% HSA to MIC for Enterococcus faecium 1059060; format: functional
Enterococcus faecalis [20] = test: Antimicrobial activity against vancomycin-resistant Enterococcus faecalis 1058946 by broth dilution method; format: functional
Enterococcus faecalis [21] = test: Selectivity ratio of MIC for Enterococcus faecalis ATCC 51299 in presence of 4% HSA to MIC for Enterococcus faecalis 51299; format: functional
Enterococcus faecium [22] = test: Antimicrobial activity against vancomycin-resistant Enterococcus faecium 1059060 by broth dilution method; format: functional
Enterococcus faecium [23] = test: Bactericidal activity against vancomycin-resistant Enterococcus faecium ATCC 51559 expressing vanA gene assessed as change in bacterial count at 32 ug/ml by time-kill assay; format: functional
Enterococcus faecium [24] = test: Antimicrobial activity against vancomycin-resistant Enterococcus faecium ATCC 51559 by broth dilution method in presence of 4% HAS; format: functional
Enterococcus faecium [25] = test: Bactericidal activity against vancomycin-resistant Enterococcus faecium 1119175 expressing vanB gene assessed as change in bacterial count at 2 ug/ml by time-kill assay; format: functional
Enterococcus faecalis [26] = test: Bactericidal activity against vancomycin-susceptible Enterococcus faecalis ATCC 29212 assessed as change in bacterial count at 2 ug/ml by time-kill assay; format: functional
Enterococcus faecium [27] = test: Bactericidal activity against vancomycin-resistant Enterococcus faecium 1119175 expressing vanB gene assessed as change in bacterial count at 32 ug/ml by time-kill assay; format: functional
Enterococcus faecium [28] = test: Antimicrobial activity against vancomycin-resistant Enterococcus faecium 1119175 by broth dilution method; format: functional
Enterococcus faecalis [29] = test: Bactericidal activity against vancomycin-resistant Enterococcus faecalis ATCC 51299 expressing vanB gene assessed as change in bacterial count at 2 ug/ml by time-kill assay; format: functional
Enterococcus faecalis [30] = test: Selectivity ratio of MIC for Enterococcus faecalis ATCC 29212 in presence of 4% HSA to MIC for Enterococcus faecalis ATCC 29212; format: functional
Enterococcus faecalis [31] = test: Selectivity ratio of MIC for Enterococcus faecalis 1058946 in presence of 4% HSA to MIC for Enterococcus faecalis 1058946; format: functional
Enterococcus faecalis [32] = test: Bactericidal activity against vancomycin-resistant Enterococcus faecalis ATCC 51299 expressing vanB gene assessed as change in bacterial count at 64 ug/ml by time-kill assay; format: functional
Enterococcus faecium [33] = test: Selectivity ratio of MIC for Enterococcus faecium 1119175 in presence of 4% HSA to MIC for Enterococcus faecium 1119175; format: functional
[34] = Free fraction in healthy human male at 4 mg/kg, iv every 24 hrs by LC/MS/MS analysis; format: ADME, organism-based; parameters: dose 4 mg/kg, route intravenous; conditions: in vivo
Enterococcus faecalis [35] = test: Bactericidal activity against vancomycin-resistant Enterococcus faecalis 1058946 expressing vanA gene assessed as change in bacterial count at 64 ug/ml by time-kill assay; format: functional
Enterococcus faecium [36] = test: Bactericidal activity against vancomycin-resistant Enterococcus faecium 1119175 expressing vanB gene assessed as change in bacterial count at 64 ug/ml by time-kill assay; format: functional
Enterococcus faecalis [37] = test: Bactericidal activity against vancomycin-resistant Enterococcus faecalis 1058946 expressing vanA gene assessed as change in bacterial count at 4 ug/ml by time-kill assay; format: functional
Enterococcus faecium [38] = test: Bactericidal activity against vancomycin-resistant Enterococcus faecium 1059060 expressing vanA gene assessed as change in bacterial count at 64 ug/ml by time-kill assay; format: functional
[39] = Cmax in healthy human male at 4 mg/kg, iv every 24 hrs by LC/MS/MS analysis; format: ADME, organism-based; parameters: dose 4 mg/kg, route intravenous; conditions: in vivo
Enterococcus faecium [40] = test: Bactericidal activity against vancomycin-resistant Enterococcus faecium 1059060 expressing vanA gene assessed as change in bacterial count at 4 ug/ml by time-kill assay; format: functional
Enterococcus faecalis [41] = test: Bactericidal activity against vancomycin-susceptible Enterococcus faecalis ATCC 29212 assessed as change in bacterial count at 4 ug/ml by time-kill assay; format: functional
Enterococcus faecium [42] = test: Bactericidal activity against vancomycin-resistant Enterococcus faecium ATCC 51559 expressing vanA gene assessed as change in bacterial count at 64 ug/ml by time-kill assay; format: functional
Enterococcus faecalis [43] = test: Bactericidal activity against vancomycin-resistant Enterococcus faecalis ATCC 51299 expressing vanB gene assessed as change in bacterial count at 4 ug/ml by time-kill assay; format: functional
Enterococcus faecium [44] = test: Bactericidal activity against vancomycin-resistant Enterococcus faecium ATCC 51559 expressing vanA gene assessed as change in bacterial count at 4 ug/ml by time-kill assay; format: functional
Enterococcus faecium [45] = test: Bactericidal activity against vancomycin-resistant Enterococcus faecium 1119175 expressing vanB gene assessed as change in bacterial count at 4 ug/ml by time-kill assay; format: functional
Enterococcus faecalis [46] = test: Bactericidal activity against vancomycin-susceptible Enterococcus faecalis ATCC 29212 assessed as change in bacterial count at 64 ug/ml by time-kill assay; format: functional

SMILES | MIC (Enterococcus faecium [1]) [µg/mL] | MIC (Enterococcus faecium [3]) [µg/mL] | MIC (Enterococcus faecalis [4]) [µg/mL] | MIC (Enterococcus faecium [6]) [µg/mL] | MIC (Enterococcus faecalis [9]) [µg/mL] | MIC (Enterococcus faecalis [10]) [µg/mL] | MIC (Enterococcus faecalis [16]) [µg/mL] | MIC (Enterococcus faecalis [17]) [µg/mL] | Ratio (Enterococcus faecium [18]) | Ratio (Enterococcus faecium [19]) | MIC (Enterococcus faecalis [20]) [µg/mL] | Ratio (Enterococcus faecalis [21]) | MIC (Enterococcus faecium [22]) [µg/mL] | MIC (Enterococcus faecium [24]) [µg/mL] | MIC (Enterococcus faecium [28]) [µg/mL] | Ratio (Enterococcus faecalis [30]) | Ratio (Enterococcus faecalis [31]) | other results
CN[C@H](CC(C)C)C(=O)N[C@H]1C(=O)N[C@@H](CC(N)=O)C(=O)N[C@H]2C(=O)N[C@H]3C(=O)N[C@H](C(=O)N[C@H](C(=O)O)c4cc(O)cc(O)c4-c4cc3ccc4O)[C@H](O[C@H]3C[C@](C)(N)[C@@H](O)[C@H](C)O3)c3ccc(c(Cl)c3)Oc3cc2cc(c3O[C@@H]2O[C@H](CO)[C@@H](O)[C@H](O)[C@H]2O[C@H]2C[C@](C)(NCc3ccc(-c4ccc(Cl)cc4)cc3)[C@@H](O)[C@H](C)O2)Oc2ccc(cc2Cl)[C@H]1O [ORITAVANCIN] | 0.01 | 0.25 (≈ 0.139 µM) | 0.008 (≈ 0.00446 µM) | 4 | 0.008 (≈ 0.00446 µM) | 2 | 0.06 | 0.016 | 2 | 8 | 0.5 (≈ 0.279 µM) | 8 | 0.5 (≈ 0.279 µM) | 0.5 | 0.016 (≈ 0.00892 µM) | 2 | 4 | log10CFU/ml (Enterococcus faecium [2]): 1.1; log10CFU/ml (Enterococcus faecium [5]): -0.85; log10CFU/ml (Enterococcus faecalis [7]): -1.6; log10CFU/ml (Enterococcus faecium [8]): 1; log10CFU/ml (Enterococcus faecalis [11]): -3.3; fraction unbound at 24 h [12]: 0.12; Cmax [13]: 32000 ng/mL; log10CFU/ml (Enterococcus faecalis [14]): -1.2; log10CFU/ml (Enterococcus faecalis [15]): 1.4; log10CFU/ml (Enterococcus faecium [23]): -1.2; log10CFU/ml (Enterococcus faecium [25]): 1.5; log10CFU/ml (Enterococcus faecalis [26]): -0.48; log10CFU/ml (Enterococcus faecium [27]): -1.4; log10CFU/ml (Enterococcus faecalis [29]): -1.2
CCCCCCCCCC(=O)N[C@@H](Cc1c[nH]c2ccccc12)C(=O)N[C@H](CC(N)=O)C(=O)N[C@@H](CC(=O)O)C(=O)N[C@@H]1C(=O)NCC(=O)N[C@@H](CCCN)C(=O)N[C@@H](CC(=O)O)C(=O)N[C@H](C)C(=O)N[C@@H](CC(=O)O)C(=O)NCC(=O)N[C@H](CO)C(=O)N[C@@H]([C@H](C)CC(=O)O)C(=O)N[C@@H](CC(=O)c2ccccc2N)C(=O)O[C@@H]1C | 64 | 2 (≈ 1.23 µM) | 2 (≈ 1.23 µM) | 8 | 2 (≈ 1.23 µM) | 16 | 32 | 32 | 16 | 8 | 2 (≈ 1.23 µM) | 16 | 1 (≈ 0.617 µM) | 32 | 4 (≈ 2.47 µM) | 16 | 8 | log10CFU/ml (Enterococcus faecalis [32]): 1.4; Ratio (Enterococcus faecium [33]): 16; fraction unbound at 24 h [34]: 0.08; log10CFU/ml (Enterococcus faecalis [35]): -0.4; log10CFU/ml (Enterococcus faecium [36]): 1.5; log10CFU/ml (Enterococcus faecalis [37]): 2.5; log10CFU/ml (Enterococcus faecium [38]): -0.78; Cmax [39]: 64 µg/mL; log10CFU/ml (Enterococcus faecium [40]): -0.54; log10CFU/ml (Enterococcus faecalis [41]): 1.9; log10CFU/ml (Enterococcus faecium [42]): 1.4; log10CFU/ml (Enterococcus faecalis [43]): 2.3; log10CFU/ml (Enterococcus faecium [44]): 2.4; log10CFU/ml (Enterococcus faecium [45]): 2.3; log10CFU/ml (Enterococcus faecalis [46]): 0.26
